The term IC50 denotes the concentration that gives 50% inhibition. A low value points to inhibition by little substance.

Bounds are passed on as bounds.

The target of assay [1] is T1, Organic anion transporter 3 (Rattus norvegicus, UniProt Q9R1U7).
T1 sequence (Q9R1U7 whole entry): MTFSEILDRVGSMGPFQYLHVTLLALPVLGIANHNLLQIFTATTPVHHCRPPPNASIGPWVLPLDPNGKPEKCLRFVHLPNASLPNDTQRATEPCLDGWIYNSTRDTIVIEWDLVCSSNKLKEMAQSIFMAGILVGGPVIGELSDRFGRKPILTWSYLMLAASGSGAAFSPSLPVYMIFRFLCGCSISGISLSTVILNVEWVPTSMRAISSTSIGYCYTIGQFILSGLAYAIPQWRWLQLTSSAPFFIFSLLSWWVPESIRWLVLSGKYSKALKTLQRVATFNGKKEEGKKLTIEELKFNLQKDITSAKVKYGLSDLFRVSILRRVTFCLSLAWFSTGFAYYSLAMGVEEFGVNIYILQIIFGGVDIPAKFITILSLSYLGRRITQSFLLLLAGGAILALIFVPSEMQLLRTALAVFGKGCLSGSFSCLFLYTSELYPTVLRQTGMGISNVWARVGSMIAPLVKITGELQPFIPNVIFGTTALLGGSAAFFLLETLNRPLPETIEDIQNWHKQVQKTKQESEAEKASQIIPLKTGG
Kind of assay: TP_TRANSPORTER: inhibition of ES uptake (ES: 50nM) in rOAT3-expressing S2 cells. It is filed as functional, cell-based.

The target in assay [2] is T2, Organic anion transporter 3 (Homo sapiens, UniProt Q8TCC7).
T2 sequence (Q8TCC7 whole entry): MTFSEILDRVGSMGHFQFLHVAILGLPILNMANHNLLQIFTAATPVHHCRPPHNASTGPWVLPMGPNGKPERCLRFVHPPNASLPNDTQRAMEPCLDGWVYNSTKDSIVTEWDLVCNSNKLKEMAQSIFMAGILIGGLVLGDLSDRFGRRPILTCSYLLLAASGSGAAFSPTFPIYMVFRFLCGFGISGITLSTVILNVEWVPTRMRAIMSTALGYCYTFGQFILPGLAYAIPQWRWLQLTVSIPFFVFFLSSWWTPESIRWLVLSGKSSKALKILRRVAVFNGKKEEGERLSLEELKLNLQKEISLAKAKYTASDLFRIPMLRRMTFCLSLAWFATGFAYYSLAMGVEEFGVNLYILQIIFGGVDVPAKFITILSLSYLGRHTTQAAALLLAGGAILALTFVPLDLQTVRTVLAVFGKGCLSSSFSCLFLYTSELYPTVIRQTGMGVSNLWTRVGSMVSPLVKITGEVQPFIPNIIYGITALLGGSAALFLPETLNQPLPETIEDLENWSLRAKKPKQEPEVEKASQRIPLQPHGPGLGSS
Kind of assay: TP_TRANSPORTER: inhibition of ES uptake (ES: 50nM) in hOAT3-expressing S2 cells. Type of assay: functional, cell-based.

For assay [3], the target named is T3, Solute carrier family 22 member 11 (Homo sapiens, UniProt Q9NSA0).
T3 sequence (Q9NSA0 whole entry): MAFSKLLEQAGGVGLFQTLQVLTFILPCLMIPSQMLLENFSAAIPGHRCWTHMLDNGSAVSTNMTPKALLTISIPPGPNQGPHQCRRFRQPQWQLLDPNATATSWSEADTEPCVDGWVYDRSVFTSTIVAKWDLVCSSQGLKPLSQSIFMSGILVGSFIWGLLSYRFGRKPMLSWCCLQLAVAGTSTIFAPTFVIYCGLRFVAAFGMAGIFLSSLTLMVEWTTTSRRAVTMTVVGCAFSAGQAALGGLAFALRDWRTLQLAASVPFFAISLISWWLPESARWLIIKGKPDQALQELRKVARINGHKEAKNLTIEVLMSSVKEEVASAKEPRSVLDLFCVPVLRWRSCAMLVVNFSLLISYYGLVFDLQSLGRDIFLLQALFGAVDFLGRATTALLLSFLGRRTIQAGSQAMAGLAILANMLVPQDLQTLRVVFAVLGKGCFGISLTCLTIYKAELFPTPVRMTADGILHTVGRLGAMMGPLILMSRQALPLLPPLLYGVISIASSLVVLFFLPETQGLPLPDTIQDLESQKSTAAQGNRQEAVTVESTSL
Kind of assay: TP_TRANSPORTER: inhibition of ES uptake (ES: 50nM) in hOAT4-expressing S2 cells. It is filed as functional, cell-based.

Assay [4] addresses T4, Solute carrier family 22 member 6 (Rattus norvegicus, UniProt O35956).
T4 sequence (O35956 whole entry): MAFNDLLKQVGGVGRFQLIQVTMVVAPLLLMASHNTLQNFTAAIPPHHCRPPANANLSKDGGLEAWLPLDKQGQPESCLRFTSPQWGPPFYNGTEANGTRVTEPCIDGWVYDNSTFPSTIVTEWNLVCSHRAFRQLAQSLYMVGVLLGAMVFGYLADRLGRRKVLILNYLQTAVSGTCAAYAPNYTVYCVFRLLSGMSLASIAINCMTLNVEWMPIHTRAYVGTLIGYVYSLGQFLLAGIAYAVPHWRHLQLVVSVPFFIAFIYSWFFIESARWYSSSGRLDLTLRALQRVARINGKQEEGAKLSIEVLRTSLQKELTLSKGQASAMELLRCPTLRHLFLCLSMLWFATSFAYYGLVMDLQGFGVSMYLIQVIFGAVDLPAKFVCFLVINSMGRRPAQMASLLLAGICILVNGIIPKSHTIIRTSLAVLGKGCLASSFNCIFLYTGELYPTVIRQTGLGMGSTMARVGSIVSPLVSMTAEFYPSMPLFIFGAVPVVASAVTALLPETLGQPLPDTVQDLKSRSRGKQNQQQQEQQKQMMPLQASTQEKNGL

The target of assay [5] is T5, Solute carrier family 22 member 7 (Rattus norvegicus, UniProt Q5RLM2).
T5 sequence (Q5RLM2 whole entry): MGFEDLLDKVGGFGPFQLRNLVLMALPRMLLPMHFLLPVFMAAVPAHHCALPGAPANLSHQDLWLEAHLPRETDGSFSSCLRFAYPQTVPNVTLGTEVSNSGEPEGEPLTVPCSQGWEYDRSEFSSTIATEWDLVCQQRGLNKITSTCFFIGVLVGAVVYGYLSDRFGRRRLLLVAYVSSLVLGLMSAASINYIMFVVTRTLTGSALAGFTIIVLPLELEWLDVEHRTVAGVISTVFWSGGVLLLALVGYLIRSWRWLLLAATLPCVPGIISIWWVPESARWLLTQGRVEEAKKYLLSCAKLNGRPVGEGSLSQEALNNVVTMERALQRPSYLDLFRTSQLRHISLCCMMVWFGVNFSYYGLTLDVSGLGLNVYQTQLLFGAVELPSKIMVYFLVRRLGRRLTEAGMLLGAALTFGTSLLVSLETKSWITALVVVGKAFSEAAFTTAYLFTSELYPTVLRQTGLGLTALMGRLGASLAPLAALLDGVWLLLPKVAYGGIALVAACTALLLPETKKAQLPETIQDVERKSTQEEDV
Kind of assay: TP_TRANSPORTER: inhibition of PGF2alpha uptake (PGF2: 50nM) in rOAT2-expressing S2 cells. Type of assay: functional, cell-based.

Assay [6] deals with T6, Solute carrier family 22 member 7 (Homo sapiens, UniProt Q9Y694).
T6 sequence (Q9Y694 whole entry): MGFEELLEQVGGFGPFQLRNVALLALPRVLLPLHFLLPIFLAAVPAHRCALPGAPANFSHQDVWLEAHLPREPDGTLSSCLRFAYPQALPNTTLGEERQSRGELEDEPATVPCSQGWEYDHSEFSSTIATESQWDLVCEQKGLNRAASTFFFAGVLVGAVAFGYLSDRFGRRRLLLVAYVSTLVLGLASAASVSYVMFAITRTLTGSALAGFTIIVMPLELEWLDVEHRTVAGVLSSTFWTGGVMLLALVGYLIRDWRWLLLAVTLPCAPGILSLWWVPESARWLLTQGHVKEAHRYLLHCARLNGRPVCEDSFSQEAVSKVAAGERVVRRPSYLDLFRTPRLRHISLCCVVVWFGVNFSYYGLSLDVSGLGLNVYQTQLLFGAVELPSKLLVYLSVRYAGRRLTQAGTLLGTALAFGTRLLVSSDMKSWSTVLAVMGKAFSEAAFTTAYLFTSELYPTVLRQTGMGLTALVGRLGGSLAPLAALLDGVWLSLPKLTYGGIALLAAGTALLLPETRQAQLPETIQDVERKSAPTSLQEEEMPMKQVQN
Kind of assay: TP_TRANSPORTER: inhibition of PGF2alpha uptake (PGF2: 50nM) in hOAT2-expressing S2 cells. It is filed as functional, cell-based.

Regarding `O=C(O)CCNC(=O)c1ccccc1` [BETAMIPRON], the IC50 in assay [1] was 47.5 µM; in assay [2] it was 9.92 µM; in assay [3], 483 µM.

As for `CC1(C)C[C@@H]1C(=O)N/C(=C\CCCCSC[C@H](N)C(=O)O)C(=O)O` [CILASTATIN], the 50% inhibitory concentration (IC50) in assay [1] stood at 742 µM; in assay [2] it was 249 µM.

As to `CN/C(=N/CCSCc1nc[nH]c1C)NC#N` [CIMETIDINE], the IC50 is 166 µM in assay [1], 92.4 µM in assay [2], greater than 2000 µM in assay [3] and greater than 2000 µM in assay [4].

As to `CC[C@H](C)C(=O)O[C@H]1C[C@H](O)C=C2C=C[C@H](C)[C@H](CC[C@@H](O)C[C@@H](O)CC(=O)O)[C@H]21` [PRAVASTATIN], the IC50 in assay [5] is 449 µM; in assay [1] it was 15.6 µM; in assay [2], 13.7 µM; in assay [6], 352 µM; in assay [3], 591 µM.

As to `CCCN(CCC)S(=O)(=O)c1ccc(C(=O)O)cc1` [PROBENECID], the IC50 in assay [5] came out at 977 µM; in assay [1] it was 6.03 µM; in assay [6] it was 668 µM.

(Values after ChEMBL document CHEMBL2074482 (J Pharmacol Sci, 2004).)
